How the values were obtained:
[1] = tested on: common mallow; test: Test F preemergence test; type: in vivo, Malva sylvestris; conditions: scale 0 to 100
Text: (§1) Seeds of plant species selected from bermudagrass (Cynodon dactylon), Surinam grass (Brachiaria decumbens), large crabgrass (Digitaria sanguinalis), green foxtail (Setaria viridis), goosegrass (Eleusine indica), johnsongrass (Sorghum halepense), kochia (Kochia scoparia), pitted morningglory (Ipomoea lacunosa), purple nutsedge (Cyperus rotundus), common ragweed (Ambrosia elation), mustard (Brassica nigra), guineagrass (Panicum maximum), […] (Paspalum dilatatum), barnyardgrass (Echinochloa crus-galli), southern sandbur (Cenchrus echinatus), common sowthistle (Sonchus oleraceous), prickly […] spinosa), Italian ryegrass (Lolium multiflorum), common purslane (Portulaca oleracea), broadleaf signalgrass (Brachiaria platyphylla), common groundsel (Senecio vulgaris), common chickweed (Stellaria media), Virginia dayflower (Commelina virginica), annual bluegrass (Poa annua), naked crabgrass (Digitaria nuda), […] cochinchinensis), quackgrass (Elytrigia repens), Canada horseweed (Conyza canadensis), field bindweed (Convolvulus arvensis), […] (Bidens bipinnata), common mallow (Malva sylvestris), Russian thistle (Salsola kali), and sugarcane (Saccharum officinarum) were planted and treated preemergence with test chemicals formulated in a non-phytotoxic solvent mixture which included a surfactant. At a different time, sugarcane was treated with postemergence applications of some of the test chemicals formulated in the same manner. Plants were approximately 3- to 4-leaf stage for the postemergence treatments. Treated plants and controls were maintained in a greenhouse for 14 to 21 days, after which time all species were compared to controls and visually evaluated. […] A dash (-) response means no test result.

[2] = tested on: kochia; test: Test F preemergence test; type: in vivo, Kochia scoparia; conditions: scale 0 to 100
Outline: (§2)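 Test chemicals were formulated in a non-phytotoxic solvent mixture with surfactant and applied preemergence to planted seeds or postemergence to sugarcane plants. Plants were kept in a greenhouse for 14 to 21 days, then visually evaluated against controls.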

[3] = tested on: dallisgrass; test: Test F preemergence test; type: in vivo, Paspalum dilatatum; conditions: scale 0 to 100
Outline: as §2

[4] = tested on: blackgrass; test: Test C pre-/postemergence test; type: in vivo, Alopecurus myosuroides
Outline: (§3)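 Seeds were planted and treated preemergence with test chemical in a non-phytotoxic solvent mixture containing surfactant. Postemergence applications of the same formulation went onto plants 2 to 18 cm tall (1- to 4-leaf stage). A dash marks no test result.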

[5] = tested on: corn; test: Test A pre-/postemergence greenhouse test; type: in vivo, Zea mays; conditions: for Corn plant response rating: 0 to 100 scale
Outline: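 Greenhouse herbicide screen, pre- and postemergence in parallel. Soil: loam plus sand. Formulation: non-phytotoxic solvent mix with surfactant. Postemergence stage: one to two leaves, 2–10 cm height. Evaluation: visual injury, compared with untreated controls, about 10 days after treatment.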

[6] = tested on: Surinam grass; test: Test F preemergence test; type: in vivo, Brachiaria decumbens; conditions: scale 0 to 100
Outline: as §2

[7] = tested on: quackgrass; test: Test F preemergence test; type: in vivo, Elytrigia repens; conditions: scale 0 to 100
Outline: as §2

[8] = tested on: green foxtail; test: Test C pre-/postemergence test; type: in vivo, Setaria viridis; conditions: Preemergence
Outline: as §3

[9] = tested on: broadleaf signalgrass; test: Test F preemergence test; type: in vivo, Brachiaria platyphylla; conditions: scale 0 to 100
Outline: as §2

[10] = tested on: Virginia dayflower; test: Test F preemergence test; type: in vivo, Commelina virginica; conditions: scale 0 to 100
Text: as §1

[11] = tested on: mustard; test: Test F preemergence test; type: in vivo, Brassica nigra; conditions: scale 0 to 100
Outline: as §2

[12] = tested on: prickly sida; test: Test F preemergence test; type: in vivo, Sida spinosa; conditions: scale 0 to 100
Outline: as §2

[13] = tested on: bermudagrass; test: Test F preemergence test; type: in vivo, Cynodon dactylon; conditions: scale 0 to 100
Outline: as §2

[14] = tested on: common ragweed; test: Test C pre-/postemergence test; type: in vivo, Ambrosia elation; conditions: Preemergence
Outline: as §3

[15] = 31 g ai/ha, scale 0 to 100 (0 no effect, 100 complete control)

Cc1cc[n+]([O-])c(S(=O)(=O)Cc2c(C(F)(F)F)nn(C)c2Cl)c1 [Compound 19]
Mallow plant response rating ([1]; 62 g ai/ha, Preemergence): 0
Mallow plant response rating ([1]; 125 g ai/ha, preemergence): 40
Plant response rating, Mallow ([1]; Preemergence, 16 g ai/ha): 0
Plant response rating, Mallow ([1]; Preemergence, 31 g ai/ha): 0
Kochia plant response rating ([2]; 62 g ai/ha, Preemergence): 0
Kochia plant response rating ([2]; 125 g ai/ha, preemergence): 100
Plant response rating, Kochia ([2]; Preemergence, 16 g ai/ha): 0
Plant response rating, Kochia ([2]; Preemergence, 31 g ai/ha): 0
Dallisgrass plant response rating ([3]; 62 g ai/ha, Preemergence): 65
Dallisgrass plant response rating ([3]; 125 g ai/ha, preemergence): 90
Plant response rating, Dallisgrass ([3]; Preemergence, 16 g ai/ha): 0
Plant response rating, Dallisgrass ([3]; Preemergence, 31 g ai/ha): 20
Blackgrass plant response rating ([4]; 62 g ai/ha, Preemergence, scale 0 to 100): 0
Plant response rating, Blackgrass ([4]; Preemergence, 31 g ai/ha, scale 0 to 100 (0 no effect, 100 complete control)): 0
Plant response rating (0 to 100), Blackgrass ([4]; Preemergence, 250 g ai/ha): 100
Blackgrass plant response rating ([4]; preemergence, 125 g ai/ha, scale 0 (no effect) to 100 (complete control)): 0
Corn plant response rating ([5]; Postemergence, 125 g ai/ha, 0 is no effect, 100 is complete control): 0
Corn plant response rating ([5]; Postemergence, 500 g ai/ha, 0 is no effect, 100 is complete control): 50
Corn plant response rating ([5]; Preemergence, 125 g ai/ha, 0 no effect, 100 complete control): 30
Plant response rating, Corn ([5]; Preemergence, 500 g ai/ha, 0 to 100 scale where 0 is no effect and 100 is complete control): 50
Surinam Grass plant response rating ([6]; 62 g ai/ha, Preemergence): 75
Surinam Grass plant response rating ([6]; 125 g ai/ha, preemergence): 90
Plant response rating, Surinam Grass ([6]; Preemergence, 31 g ai/ha): 30
Quackgrass plant response rating ([7]; 62 g ai/ha, Preemergence): 40
Quackgrass plant response rating ([7]; 125 g ai/ha, preemergence): 60
Plant response rating, Quackgrass ([7]; Preemergence, 16 g ai/ha): 0
Plant response rating, Quackgrass ([7]; Preemergence, 31 g ai/ha): 0
Foxtail, Green plant response rating ([8]; 62 g ai/ha, scale 0 to 100): 100
Plant response rating, Foxtail, Green [8, 15]: 98
Plant response rating (0 to 100), Foxtail, Green ([8]; 250 g ai/ha): 100
Signalgrass plant response rating ([9]; 62 g ai/ha, Preemergence): 65
Signalgrass plant response rating ([9]; 125 g ai/ha, preemergence): 95
Plant response rating, Signalgrass ([9]; Preemergence, 31 g ai/ha): 60
Dayflower plant response rating ([10]; 62 g ai/ha, Preemergence): 30
Dayflower plant response rating ([10]; 125 g ai/ha, preemergence): 90
Plant response rating, Dayflower ([10]; Preemergence, 16 g ai/ha): 0
Plant response rating, Dayflower ([10]; Preemergence, 31 g ai/ha): 0
Black Mustard plant response rating ([11]; 62 g ai/ha, Preemergence): 100
Black Mustard plant response rating ([11]; 125 g ai/ha, preemergence): 100
Plant response rating, Black Mustard ([11]; Preemergence, 16 g ai/ha): 0
Plant response rating, Black Mustard ([11]; Preemergence, 31 g ai/ha): 20
Prickly Sida plant response rating ([12]; 62 g ai/ha, Preemergence): 30
Prickly Sida plant response rating ([12]; 125 g ai/ha, preemergence): 60
Plant response rating, Prickly Sida ([12]; Preemergence, 16 g ai/ha): 0
Plant response rating, Prickly Sida ([12]; Preemergence, 31 g ai/ha): 20
Bermudagrass plant response rating ([13]; 62 g ai/ha, Preemergence): 60
Bermudagrass plant response rating ([13]; 125 g ai/ha, preemergence): 95
Plant response rating, Bermudagrass ([13]; Preemergence, 16 g ai/ha): 0
Plant response rating, Bermudagrass ([13]; Preemergence, 31 g ai/ha): 40
Ragweed plant response rating ([14]; 62 g ai/ha, scale 0 to 100): 0
Plant response rating, Ragweed [14, 15]: 0

Reference: patent US20100298141A1, “SUBSTITUTED PYRIDINE N-OXIDE HERBICIDES” (E. I. DU PONT DE NEMOURS AND COMPANY, priority 2007, published 2010)
